Experiment [1] addresses SHP-2 enzyme (Met1-Leu525) (Homo sapiens (Human), UniProt Q06124). The experiment can be described thus: SHP2 inhibition enzymatic assay. The format is biochemical. The following applies: 0.5 nM SHP-2 activated by 500 nM IRS1 peptide, 75 μM DiFMUP substrate; read-out: SHP2wt-IC50. The gist of the method: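 SHP-2 (Met1-Leu525), 0.5 nM, activated with 500 nM IRS1 bis-phosphopeptide, preincubated 30 min with compounds in HEPES pH 7.2 buffer with 5 mM DTT. 75 μM DiFMUP added for 30 min at room temperature, stopped with bpV; fluorescence read. IC50 from four-parameter logistic fit of % inhibition.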

For experiment [2], the system named is ERK phosphorylation in KYSE-520 cells. The experiment can be described thus: Phospho-ERK cellular assay. It counts as cell-based. The following applies: KYSE-520 cells, 2 h at 37° C., phospho-ERK1/2 (Thr202/Tyr204) TR-FRET, read-out: PERK IC50. The gist of the method: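 TR-FRET read-out of ERK1/2 Thr202/Tyr204 phosphorylation was taken after overnight antibody incubation at room temperature. Before that, KYSE-520 cells were treated 2 h at 37 °C with compound dilutions and lysed 30 min. Percent inhibition relative to vehicle and cell-free wells was fitted four-parametrically to give IC50.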
(In TR-FRET formats the signal depends on donor and acceptor labels being close together.)

Data on 22 compounds can be found in patent US20240109900A1, “AZABICYCLIC SHP2 INHIBITORS” (IRBM S.P.A., priority 2021, published 2024).

Structures are written as SMILES. Read-outs that look alike come from different tables or passages of the source.

Chain of SHP-2 enzyme (Met1-Leu525) (Q06124 1-525): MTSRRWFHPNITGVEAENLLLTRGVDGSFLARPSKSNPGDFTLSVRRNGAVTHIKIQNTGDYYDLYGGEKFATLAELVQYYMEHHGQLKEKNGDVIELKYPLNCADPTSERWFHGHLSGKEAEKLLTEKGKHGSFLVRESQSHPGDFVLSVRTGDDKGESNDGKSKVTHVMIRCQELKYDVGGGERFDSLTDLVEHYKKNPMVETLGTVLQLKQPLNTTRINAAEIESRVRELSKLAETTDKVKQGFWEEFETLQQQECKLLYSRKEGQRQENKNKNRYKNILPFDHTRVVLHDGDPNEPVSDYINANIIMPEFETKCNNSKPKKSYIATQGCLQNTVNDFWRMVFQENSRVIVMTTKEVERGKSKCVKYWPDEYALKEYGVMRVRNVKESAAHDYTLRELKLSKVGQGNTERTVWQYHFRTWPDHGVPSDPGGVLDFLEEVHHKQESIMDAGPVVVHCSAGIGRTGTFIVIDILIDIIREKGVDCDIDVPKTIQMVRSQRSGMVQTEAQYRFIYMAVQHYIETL

The term IC50 denotes the concentration that gives 50% inhibition. On to `NC[C@]1(c2ccccc2F)[C@@H]2CCN(c3cnc4c(-c5ccc(O)cc5F)n[nH]c4n3)C[C@@H]21` [Example 332, 4-(6-((1S,6R,7R)-7-(aminomethyl)-7-(2-fluorophenyl)-3-azabicyclo[4.1.0]heptan-3-yl)-1H-pyrazolo[3,4-b]pyrazin-3-yl)-3-fluorophenol], for which the IC50 in experiment [1] is below 500 nM; in experiment [2] (Homo sapiens, KYSE-520, 2 h), below 1000 nM.
On to `NCC1C2CCN(c3cnc4c(-c5cccc(Cl)c5Cl)n[nH]c4n3)CC12` (centres unmarked) [Example 100, (3-(3-(2,3-dichlorophenyl)-1H-pyrazolo[3,4-b]pyrazin-6-yl)-3-azabicyclo[4.1.0]heptan-7-yl)methanamine], for which the IC50 in experiment [1] is below 500 nM; in experiment [2] (Homo sapiens, KYSE-520, 2 h), below 1000 nM.
For `NC[C@]1(c2ccccc2F)[C@@H]2CCN(c3cnc4c(-c5ccc(O)nc5C(F)(F)F)n[nH]c4n3)C[C@@H]21` [Example 345, 5-(6-((1S,6R,7R)-7-(aminomethyl)-7-(2-fluorophenyl)-3-azabicyclo[4.1.0]heptan-3-yl)-1H-pyrazolo[3,4-b]pyrazin-3-yl)-6-(trifluoromethyl)pyridin-2-ol], in that order: below 500 nM and above 5000 nM.
For `Cc1conc1C1(CN)C2CCN(c3cnc4c(-c5cccc(Cl)c5Cl)n[nH]c4n3)CC21` (centres unmarked) [Example 14, (3-(3-(2,3-dichlorophenyl)-1H-pyrazolo[3,4-b]pyrazin-6-yl)-7-(4-methylisoxazol-3-yl)-3-azabicyclo[4.1.0]heptan-7-yl)methanamine], in that order: below 500 nM and below 1000 nM.
`Cc1csc([C@@]2(CN)[C@@H]3CN(c4cnc5c(-c6ccc7nc(C)sc7c6Cl)n[nH]c5n4)C[C@@H]32)n1` [Example 461]: the half-inhibitory concentration (IC50) in experiment [1] is below 500 nM; in experiment [2] it was below 1000 nM.
As to `NC[C@]1(c2ccccc2F)[C@@H]2CCN(c3cnc4c(-c5ccnc6c5CCO6)n[nH]c4n3)C[C@@H]21` [Example 154, ((1S,6R,7R)-3-(3-(2,3-dihydrofuro[2,3-b]pyridin-4-yl)-1H-pyrazolo[3,4-b]pyrazin-6-yl)-7-(2-fluorophenyl)-3-azabicyclo[4.1.0]heptan-7-yl)methanamine], the IC50 is below 500 nM in experiment [1] and below 1000 nM in experiment [2] (Homo sapiens, KYSE-520, 2 h).
For `Cn1cc2c(Cl)c(-c3n[nH]c4nc(N5C[C@@H]6[C@H](C5)[C@@]6(CN)c5nc(C(F)(F)F)cs5)n(C)c(=O)c34)ccc2n1` [Example 471, 6-((1R,5S,6r)-6-(aminomethyl)-6-(4-(trifluoromethyl)thiazol-2-yl)-3-azabicyclo[3.1.0]hexan-3-yl)-3-(4-chloro-2-methyl-2H-indazol-5-yl)-5-methyl-1,5-dihydro-4H-pyrazolo[3,4-d]pyrimidin-4-one], in that order: below 500 nM and below 1000 nM.
For `NC[C@]1(c2ccccc2F)[C@@H]2CCN(c3cnc4c(-c5ccncc5Cl)n[nH]c4n3)C[C@@H]21` [Example 176, ((1S,6R,7R)-3-(3-(3-chloropyridin-4-yl)-1H-pyrazolo[3,4-b]pyrazin-6-yl)-7-(2-fluorophenyl)-3-azabicyclo[4.1.0]heptan-7-yl)methanamine], in that order: below 500 nM and below 1000 nM.
On to `Cc1cc([C@@]2(CN)[C@@H]3CCN(c4cnc5c(-c6ccc7c(c6)OC(F)(F)O7)n[nH]c5n4)C[C@@H]32)no1` [Example 37, ((1S,6R,7S)-3-(3-(2,2-difluorobenzo[d][1,3]dioxol-5-yl)-1H-pyrazolo[3,4-b]pyrazin-6-yl)-7-(5-methylisoxazol-3-yl)-3-azabicyclo[4.1.0]heptan-7-yl)methanamine], for which the IC50 in experiment [1] was below 500 nM; in experiment [2] (Homo sapiens, KYSE-520, 2 h), 1000 to 5000 nM.
For `NC[C@]1(c2ccccc2F)[C@@H]2CCN(c3cnc4c(-c5ccc6cc[nH]c(=O)c6c5)n[nH]c4n3)C[C@@H]21` [Example 294, 7-(6-((1S,6R,7R)-7-(aminomethyl)-7-(2-fluorophenyl)-3-azabicyclo[4.1.0]heptan-3-yl)-1H-pyrazolo[3,4-b]pyrazin-3-yl)isoquinolin-1(2H)-one], in that order: below 500 nM and below 1000 nM.
The matching figures for `COc1c(F)cc(-c2n[nH]c3nc(N4CC[C@@H]5[C@H](C4)[C@@]5(CN)c4ccccc4F)cnc23)c2cccnc12` [Example 225, ((1S,6R,7R)-3-(3-(7-fluoro-8-methoxyquinolin-5-yl)-1H-pyrazolo[3,4-b]pyrazin-6-yl)-7-(2-fluorophenyl)-3-azabicyclo[4.1.0]heptan-7-yl)methanamine]: below 500 nM and below 1000 nM.
The matching figures for `COc1ccc(-c2n[nH]c3nc(N4CC[C@@H]5[C@H](C4)[C@@]5(CN)c4ccccc4F)cnc23)nc1N` [Example 214, 6-(6-((1S,6R,7R)-7-(aminomethyl)-7-(2-fluorophenyl)-3-azabicyclo[4.1.0]heptan-3-yl)-1H-pyrazolo[3,4-b]pyrazin-3-yl)-3-methoxypyridin-2-amine]: below 500 nM and above 5000 nM.
`Cn1cc2c(C(F)F)c(-c3n[nH]c4nc(N5CC[C@@H]6[C@H](C5)[C@@]6(CN)c5ccccc5F)cnc34)ccc2n1` [Example 202, ((1S,6R,7R)-3-(3-(4-(difluoromethyl)-2-methyl-2H-indazol-5-yl)-1H-pyrazolo[3,4-b]pyrazin-6-yl)-7-(2-fluorophenyl)-3-azabicyclo[4.1.0]heptan-7-yl)methanamine]: the IC50 was below 500 nM in experiment [1] and below 1000 nM in experiment [2] (Homo sapiens, KYSE-520, 2 h).
In the case of `Cc1conc1C1(CN)C2CCN(c3cnc4c(-c5ccc6onc(C)c6c5)n[nH]c4n3)CC21` (centres unmarked) [Example 52, (3-(3-(3-methylbenzo[d]isoxazol-5-yl)-1H-pyrazolo[3,4-b]pyrazin-6-yl)-7-(4-methylisoxazol-3-yl)-3-azabicyclo[4.1.0]heptan-7-yl)methanamine], the concentration for half-maximal inhibition (IC50) was below 500 nM in experiment [1] and below 1000 nM in experiment [2] (Homo sapiens, KYSE-520, 2 h).
The matching figures for `Cn1ccc(C2(CN)C3CCN(c4cnc5c(-c6cccc(Cl)c6Cl)n[nH]c5n4)CC32)n1` (centres unmarked) [Example 98, (3-(3-(2,3-dichlorophenyl)-1H-pyrazolo[3,4-b]pyrazin-6-yl)-7-(1-methyl-1H-pyrazol-3-yl)-3-azabicyclo[4.1.0]heptan-7-yl)methanamine]: below 500 nM and below 1000 nM.
The matching figures for `Cn1c(=O)oc2ccc(-c3n[nH]c4nc(N5CC[C@@H]6[C@H](C5)[C@@]6(CN)c5ccccc5F)cnc34)cc21` [Example 341, 5-(6-((1S,6R,7R)-7-(aminomethyl)-7-(2-fluorophenyl)-3-azabicyclo[4.1.0]heptan-3-yl)-1H-pyrazolo[3,4-b]pyrazin-3-yl)-3-methylbenzo[d]oxazol-2(3H)-one]: below 500 nM and below 1000 nM.
The matching figures for `NC[C@]1(c2ccccc2F)[C@@H]2CCN(c3cnc4c(-c5ccnc(N6CC[C@H](CO)C6)c5Cl)n[nH]c4n3)C[C@@H]21` [Example 386, ((S)-1-(4-(6-((1S,6R,7R)-7-(aminomethyl)-7-(2-fluorophenyl)-3-azabicyclo[4.1.0]heptan-3-yl)-1H-pyrazolo[3,4-b]pyrazin-3-yl)-3-chloropyridin-2-yl)pyrrolidin-3-yl)methanol]: below 500 nM and below 1000 nM.
Turning to `Cc1c(-c2n[nH]c3nc(N4CC[C@@H]5[C@H](C4)[C@@]5(CN)c4cccc(F)c4F)cnc23)ccc2nn(C)cc12` [Example 177, ((1S,6R,7R)-7-(2,3-difluorophenyl)-3-(3-(2,4-dimethyl-2H-indazol-5-yl)-1H-pyrazolo[3,4-b]pyrazin-6-yl)-3-azabicyclo[4.1.0]heptan-7-yl)methanamine], the 50% inhibitory concentration (IC50) in experiment [1] is below 500 nM; in experiment [2] (Homo sapiens, KYSE-520, 2 h), below 1000 nM.
The matching figures for `Cc1cc2ncccc2cc1-c1n[nH]c2nc(N3CC[C@@H]4[C@H](C3)[C@@]4(CN)c3ccccc3F)cnc12` [Example 171, ((1S,6R,7R)-7-(2-fluorophenyl)-3-(3-(7-methylquinolin-6-yl)-1H-pyrazolo[3,4-b]pyrazin-6-yl)-3-azabicyclo[4.1.0]heptan-7-yl)methanamine]: below 500 nM and below 1000 nM.
The matching figures for `Cc1csc([C@@]2(CN)[C@@H]3CN(c4cnc(Sc5ccnc(N)c5Cl)cn4)C[C@@H]32)n1` [Example 498, 4-((5-((1R,5S,6r)-6-(aminomethyl)-6-(4-methylthiazol-2-yl)-3-azabicyclo[3.1.0]hexan-3-yl)pyrazin-2-yl)thio)-3-chloropyridin-2-amine]: below 500 nM and below 1000 nM.
The matching figures for `NC[C@]1(c2ccccc2F)[C@@H]2CCN(c3cnc4c(-c5cccc6[nH]c(=O)ccc56)n[nH]c4n3)C[C@@H]21` [Example 210, 5-(6-((1S,6R,7R)-7-(aminomethyl)-7-(2-fluorophenyl)-3-azabicyclo[4.1.0]heptan-3-yl)-1H-pyrazolo[3,4-b]pyrazin-3-yl)quinolin-2(1H)-one]: below 500 nM and below 1000 nM.
With `Cc1cc(C2(CN)C3CCN(c4nc5[nH]nc(-c6ccnc(N)c6Cl)c5nc4CO)CC32)no1` (centres unmarked) [Example 58, (3-(2-amino-3-chloropyridin-4-yl)-6-(7-(aminomethyl)-7-(5-methylisoxazol-3-yl)-3-azabicyclo[4.1.0]heptan-3-yl)-1H-pyrazolo[3,4-b]pyrazin-5-yl)methanol], the half-inhibitory concentration (IC50) in experiment [1] is below 500 nM; in experiment [2] (Homo sapiens, KYSE-520, 2 h), above 5000 nM.
